Source: patent US10350210B2, “EGFR and ALK dual inhibitor” (PRECEDO PHARMACEUTICALS CO., LTD, priority 2015, dated 2019)

Tests used:
H1975 = assay: Effect on cell apoptosis (Western Blot, PARP and Caspase 3 cleavage), H1975; format: cell-based, human; settings: H1975 (EGFR L858R/T790M), 24 hours
Description: (§1) In order to confirm whether the death of cells is through apoptosis or necrosis after administration of drugs, non-small cell lung cancer cell A549 (expressing wild-type EGFR gene), non-small cell lung cancer cell line H1975 (expressing EGFR L858R/T790M double mutant gene), non-small cell lung cancer cell line H3255 (expressing EGFR L858R mutant gene), non-small cell lung cancer cell line H3122 (expressing ALK gene) cell line, and non-small cell lung cancer cell line PC-9 (expressing EGFR delE746_A750 mutant gene) were tested for effect of Compound 1 on cleavage of poly ADP-ribose polymerase PARP which is a DNA repair enzyme and Caspase 3, which were closely related to cell apoptosis. […] Western Blot was used to detect the effect of various concentrations of drugs at various time points on cleavage of poly ADP-ribose polymerase PARP which is a DNA repair enzyme and Caspase 3.

H3122 = assay: Effect on cell apoptosis (Western Blot, PARP and Caspase 3 cleavage), H3122; format: cell-based, human; settings: H3122 (ALK gene), 24 hours
Description: as §1

CHO = assay: Cell growth (Cell Titer-Glo viability), CHO; format: cell-based, Chinese hamster; settings: Cricetulus griseus; CHO Chinese hamster ovary cell, 72 hrs; read-out: GI50
NCI-H3122 = assay: Effect on cell cycle (PI staining, flow cytometer), NCI-H3122; format: cell-based, human; settings: NCI-H3122 (ALK gene), 24 hours
Description: In order to study which growth phase the cell was halted after administration of the drugs, five cell lines including non-small cell lung cancer cell line A549 (expressing wild-type EGFR gene), non-small cell lung cancer cell line H1975 (expressing EGFR L858R/T790M double mutant gene), non-small cell Lung cancer cell line PC-9 (expressing EGFR delE746_A750 mutant gene), non-small cell lung cancer cell line H3255 (expressing EGFR L858R mutant gene) and non-small cell lung cancer cell NCI-H3122 (expressing ALK gene) were tested for effect of Compound 1 on cell cycle distribution. Two cell lines including non-small cell lung cancer cell NCI-H3122 (expressing ALK gene) and non-small cell lung cancer cell H1975 (expressing EGFR L858R/T790M double mutant gene) were tested for effect of Compound 10 on cell cycle distribution. […]

| SMILES | concentration at which cleavage of PARP and Caspase 3 could be observed (H1975) | concentration at which evident cleavage of PARP and Caspase 3 could be observed (H3122) | GI50 (CHO) | effect on cell cycle distribution (NCI-H3122) |
| --- | --- | --- | --- | --- |
| C=CC(=O)Nc1cc(Nc2ncc(Cl)c(Nc3ccccc3S(=O)(=O)C(C)C)n2)c(OC)cc1N1CCCN(C)CC1 [Compound 10, N-(5-(5-chloro-4-(2-(isopropylsulfonyl)phenylamino)pyrimidin-2-ylamino)-4-methoxy-2-(4-methyl-1,4-homopiperazin-1-yl)phenyl)acrylamide] | 0.3 µM | 1 µM | 0.99 µM | halt the cells in G0-G1 phase |
| C=CC(=O)Nc1cc(Nc2ncc(Cl)c(Nc3ccccc3S(=O)(=O)C(C)C)n2)c(OC)cc1N1CCN(CC)CC1 [Compound 1, N-(5-(5-chloro-4-(2-(isopropylsulfonyl)phenylamino)pyrimidin-2-ylamino)-2-(4-ethylpiperazin-1-yl)-4-methoxyphenyl)acrylamide] | 0.3 µM | 0.03 µM | 0.2 µM | halt the cells in G0-G1 phase |
